Assay results taken from ChEMBL document CHEMBL1201862, “PubChem BioAssay data set” (2004).
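Five compound concentrations were applied to cells in 96-well plates for 48 hours; endpoints were derived by simple linear interpolation of the resulting dose-response curve. GI50 = concentration required for 50% inhibition of growth.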 Calls of active or inactive are those of the source. Cut-off read from the data, not from the text of the source: active = GI50 up to about 1.1 µM and inactive = higher.

Legend:
Assay in all cases: inhibition of tumour cell growth, NCI panel, 48 h
SR = system: SR
DU-145 = system: DU-145
HL-60 = system: HL-60
MDA-MB-231 = system: MDA-MB-231
MCF7 = system: MCF7
MDA-MB-435 = system: MDA-MB-435
TK-10 = system: TK-10
PC-3 = system: PC-3
ACHN = system: ACHN
MDA-N = system: MDA-N
Malme-3M = system: Malme-3M
M14 = system: M14
T47D = system: T47D
RXF 393 = system: RXF 393
NCI/ADR-RES = system: NCI/ADR-RES
NCI-H522 = system: NCI-H522

Compound	GI50 (SR)	GI50 (DU-145)	GI50 (HL-60)	GI50 (MDA-MB-231)	GI50 (MCF7)	GI50 (MDA-MB-435)	GI50 (TK-10)	GI50 (PC-3)	GI50 (ACHN)	GI50 (MDA-N)	GI50 (Malme-3M)	GI50 (M14)	GI50 (T47D)	GI50 (RXF 393)	GI50 (NCI/ADR-RES)	GI50 (NCI-H522)
CCOC(=O)c1csc(NC(=O)C(C)N2CCOCC2)n1 (stereo not drawn)	> 100 µM (inactive)	> 100 µM (inactive)	> 100 µM (inactive)	> 100 µM (inactive)	> 100 µM (inactive)	> 100 µM (inactive)	> 100 µM (inactive)	> 100 µM (inactive)	> 100 µM (inactive)	> 100 µM (inactive)	> 100 µM (inactive)	> 100 µM (inactive)	> 100 µM (inactive)	> 100 µM (inactive)	> 100 µM (inactive)	–
COc1ccc(CNc2nc3cc(C(F)(F)F)ccc3nc2C(=O)O)cc1OC	23.9 µM (inactive)	41.4 µM (inactive)	–	32.5 µM (inactive)	23.2 µM (inactive)	26.7 µM (inactive)	–	27.5 µM (inactive)	26.1 µM (inactive)	36.5 µM (inactive)	–	32 µM (inactive)	37.8 µM (inactive)	–	34 µM (inactive)	–
CN(C)CCCNC(=O)c1c(-c2cccnc2)cnc2ccccc12	> 100 µM (inactive)	> 100 µM (inactive)	> 100 µM (inactive)	–	> 100 µM (inactive)	–	> 100 µM (inactive)	> 100 µM (inactive)	> 100 µM (inactive)	> 100 µM (inactive)	> 100 µM (inactive)	> 100 µM (inactive)	–	> 100 µM (inactive)	> 100 µM (inactive)	> 100 µM (inactive)
CC(C)(CO)NC(=O)c1cccc(C(=O)NC(C)(C)CO)c1Br	> 100 µM (inactive)	> 100 µM (inactive)	> 100 µM (inactive)	> 100 µM (inactive)	> 100 µM (inactive)	> 100 µM (inactive)	> 100 µM (inactive)	> 100 µM (inactive)	> 100 µM (inactive)	–	> 100 µM (inactive)	> 100 µM (inactive)	> 100 µM (inactive)	7.83 µM (inactive)	> 100 µM (inactive)	–
CC1(C)O[C@H]2OC(CO)C(OS(C)(=O)=O)[C@H]2O1 (stereo partly drawn)	–	> 100 µM (inactive)	> 100 µM (inactive)	> 100 µM (inactive)	> 100 µM (inactive)	> 100 µM (inactive)	> 100 µM (inactive)	> 100 µM (inactive)	> 100 µM (inactive)	> 100 µM (inactive)	> 100 µM (inactive)	> 100 µM (inactive)	> 100 µM (inactive)	–	> 100 µM (inactive)	48.1 µM (inactive)
COC(C/C(=C/CO[Si](C(C)C)(C(C)C)C(C)C)C(=O)N(C(=O)OC(C)(C)C)c1ccccc1I)OC	34.4 µM (inactive)	> 100 µM (inactive)	–	> 10 µM (inactive)	18.7 µM (inactive)	32.5 µM (inactive)	49 µM (inactive)	23.6 µM (inactive)	45.9 µM (inactive)	26.9 µM (inactive)	–	47.2 µM (inactive)	36.8 µM (inactive)	–	> 100 µM (inactive)	2.77 µM (inactive)
CC(C)c1ccccc1SC1CC(=O)CC(Sc2ccccc2C(C)C)C12O[C@H](c1ccccc1)[C@@H](c1ccccc1)O2 (stereo partly drawn)	–	76.2 µM (inactive)	12.3 µM (inactive)	34.8 µM (inactive)	34 µM (inactive)	22.6 µM (inactive)	85.9 µM (inactive)	58.9 µM (inactive)	30.3 µM (inactive)	20.9 µM (inactive)	–	21.5 µM (inactive)	28.6 µM (inactive)	19.9 µM (inactive)	47 µM (inactive)	–
CNC(=S)N/N=C(/C)CCC/C(C)=N/NC(=S)NC	3.89 µM (inactive)	> 68.5 µM (inactive)	> 100 µM (inactive)	> 28.6 µM (inactive)	0.151 µM (active)	> 71.8 µM (inactive)	> 100 µM (inactive)	3.71 µM (inactive)	> 80.7 µM (inactive)	> 100 µM (inactive)	> 90.4 µM (inactive)	> 100 µM (inactive)	1.23 µM (inactive)	–	> 100 µM (inactive)	0.728 µM (active)
